Each block holds one molecule with its values, some of them ahead of it.
What was measured:
LTB4 Synthesis = assay: Reverse Passive Arthus Reaction (pleurisy, LTB4 in pleural exudate); type: in vivo, male Lewis rats; details: for ED50: Rattus norvegicus, po, ED50 printed in parentheses; for ED50 / % Inhibition of LTB4: standard drugs; for % Inhibition LTB4 Synthesis: 25 mg/kg p.o.
Procedure: 3. Reverse Passive Arthus Reaction
A reverse passive Arthus reaction is induced in the pleural cavity of male Lewis rats (150°-200 g; fasted overnight prior to use) by the intravenous administration of bovine serum albumin (BSA; 4 mg/0.2 ml) followed 30 minutes later by the injection of rabbit anti-BSA (1 mg/0.2 ml; lyophilized IgG fraction; Organon Teknika, West Chester, Pa.) into the right pleural space under halothane anesthesia. Drugs or vehicle (0.5% Tween-80) control are administered orally in a volume of 1 ml/100 g body weight at 1 hour prior to the anti-BSA. Animals are sacrificed at either the time of peak eicosanoid production (i.e. 5 minutes after anti-BSA for immunoreactive TxB2, 10 minutes for immunoreactive LTB4, 20 minutes for immunoreactive LTC4) or at the time of peak neutrophil infiltration (4 hours after anti-BSA) by CO2 inhalation. The pleural cavity is then exposed, the fluid exudate removed by gentle vacuum aspiration and the volume of exudate is recorded. For the determination of cellular infiltration, the pleural cavity is rinsed with 3 ml of 0.1% EDTA in sterile saline, and the recovered wash is pooled with the exudate. Cell number is determined on a model ZBI Coulter counter. For determination of eicosanoid production, undiluted pleural exudate is microfuged and the supernatant is extracted with ethanol (8-10 times volume). Extracts are either stored at -20° C., or are evaporated to dryness under a stream of N2 and reconstituted in radioimmunoassay (RIA) buffer.
Eicosanoids are quantitated by RIA according to the procedure specified by the RIA kit manufacturer (Advanced Magnetics, Cambridge, MA). Briefly, 100 μl of ^3 H-labeled eicosanoid and 100 μl of specific antibody ,are sequentially added to 100 μl of extracted pleural exudate in BGG-phosphate buffer which contains 0.01M phosphate, 0.1% bovine gamma globulin and 0.1% sodium azide at pH 7.0. Antibody-bound eicosanoid is separated from unbound eicosanoid by the addition of 750 μl of dextran (0.4%)-coated charcoal (Norit A) containing 0.1% sodium azide. The mixture is centrifuged at 2000 RPM at 5° C. for 15 minutes to pellet the charcoal and adsorbed unbound eicosanoid. Antibody-bound labeled eicosanoid is quantitated by counting in a liquid scintillation counter, and is correlated to concentration by a standard curve.

5-Lipoxygenase = target: T1, 5-Lipoxygenase (Homo sapiens, UniProt P09917); assay: Inhibition of 5-Lipoxygenase in Human Whole Blood (ionophore A23187-stimulated LTB4); type: cell-based
T1 construct: endogenous in cells; host or cells: whole blood of male human donors (results per 10^6 neutrophils)
T1 sequence (P09917 1-674): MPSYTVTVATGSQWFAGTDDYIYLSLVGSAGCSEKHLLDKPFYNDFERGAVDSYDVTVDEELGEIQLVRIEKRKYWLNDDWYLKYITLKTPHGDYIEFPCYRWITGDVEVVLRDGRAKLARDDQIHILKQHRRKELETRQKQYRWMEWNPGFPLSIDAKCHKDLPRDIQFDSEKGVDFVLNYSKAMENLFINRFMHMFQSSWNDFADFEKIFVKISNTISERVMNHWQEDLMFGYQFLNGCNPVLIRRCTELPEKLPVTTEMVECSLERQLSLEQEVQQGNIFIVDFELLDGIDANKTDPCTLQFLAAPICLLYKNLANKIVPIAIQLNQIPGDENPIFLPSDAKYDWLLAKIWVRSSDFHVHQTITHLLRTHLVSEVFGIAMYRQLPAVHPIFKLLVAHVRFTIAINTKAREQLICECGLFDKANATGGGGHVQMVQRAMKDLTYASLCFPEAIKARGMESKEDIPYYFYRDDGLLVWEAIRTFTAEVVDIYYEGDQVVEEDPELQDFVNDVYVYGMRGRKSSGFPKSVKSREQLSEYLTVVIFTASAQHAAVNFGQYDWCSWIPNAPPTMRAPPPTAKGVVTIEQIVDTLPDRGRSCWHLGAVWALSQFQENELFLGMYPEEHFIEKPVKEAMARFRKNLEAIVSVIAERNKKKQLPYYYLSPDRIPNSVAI
Procedure: 1. Inhibition of 5-Lipoxygenase in Human Whole Blood
Blood is obtained in 50-100 ml quantities from male donors. White blood cell counts and differentials are made. Two ml of blood are placed in a 15 ml polypropylene test tube. Test compounds are solubilized in dimethylsulfoxide and diluted in 1:10 in 10% bovine serum albumin in phosphate buffered saline, pH 7.4 resulting in a final dimethylsulfoxide concentration of 0.1% in the blood. Then, solutions of test compounds are added to the blood in a shaking water bath at 37° C. for 10 minutes prior to the addition of 30 μM calcium ionophore (A23187, Sigma). After ionophore administration, whole blood samples are mixed and incubated for 20 minutes at 37° C. in a shaking water bath. Incubation is terminated by placing samples in an ice bath and immediately adding ethylene glycol-bis-(β-aminoethyl ether)-N, N,N',N'-tetraacetic acid (10 mM). Samples are mixed and centrifuged at 1200×g for 15 minutes at […]. Preparation of samples for evaluation by RIA or ELISA is carded out by the following protocol. Plasma is removed from sample tubes, placed in 15 ml polypropylene test tubes containing 8 ml methanol, and then vortexed to precipitate protein. Samples are stored at -70° C. overnight. The next day, samples are centrifuged at 200×g for 15 minutes at 4° C. to pellet the precipitate. Samples are dried in a Savant SpeedVac Concentrator, Model SVC 200H, reconstituted to original volume with ice cold RIA or ELISA buffer, and stored at -70° C. until assayed. The assay for eicosanoids (LTB4, TxB2, and PGE2) is performed as described by the manufacturer of the [^3 H]-RIA kit or ELISA kit (LTB4 -Amersham, TxB2 and PGE2 - Caymen Chemical).
The total eicosanoid level in 2 ml of blood is calculated and reported as ng/10^6 neutrophils. Significance is determined by a one-way analysis of variance with least significant difference (LSD) comparisons to control (p≤0.05) and IC50 's (μM) are determined by regression analysis (Finney, 1978). Drug effects are expressed as percent change from control values.

Lipoxygenase = assay: Ex-Vivo Measurement of Lipoxygenase Inhibition in Orally Dosed Rats (LTB4 in A23187-stimulated blood); design: species or system Male Sprague Dawley rats; details: ex vivo rat, p.o., pretreatment 3 hr
Procedure: 2. […] After an interval of 3 or 6 hours, the rats were anesthetized with metofane (n =4/group) and blood collected in heparinized tubes. White blood cell counts and differentials were made. One ml of blood from each animal was placed in a 5 ml plastic tube in a shaker bath at 37° C. A23187 at a final concentration of 10 μM was added to the blood and the blood vortexed and incubated for 15 min at 37° C. with gentle shaking. Incubation was terminated by vortexing sample and centrifuging immediately at 1200 xG for 15 min at 4° C. The plasma was transferred to 15 ml plastic tubes each containing 8 ml of methanol to precipitate protein followed by vortexing. The samples were stored at -70° C. overnight and the next day the samples were centrifuged at 800 xG for 15 min to pellet the precipitate. The samples were dried in a Savant SpeedVac Concentrator Model SVC 200H and reconstituted to the original volume with cold RIA or ELISA buffer. The reconstituted samples were stored at -70° C. until assayed. The assay for LTB4 was perforated according to the directions of the [^3 H]RIA kit or ELISA kit (Seragen). The total metabolite level in 1 ml of blood is calculated and reported as ng/10^6 neutrophils. Significance is determined by a one-way analysis of variance with LSD comparisons to control (p<0.05).

SMILES: NC1=NN(c2cccc(C(F)(F)F)c2)CC1 [BW755C, reference compound]
ED50 (LTB4 Synthesis): 23 mg/kg

SMILES: COc1ccc2c(c1)c(CC(=O)O)c(C)n2C(=O)c1ccc(Cl)cc1 [Indomethacin, reference compound]
% Inhibition of LTB4 (LTB4 Synthesis; 4 mg/kg p.o.): 12%

SMILES: O=C(O)Cc1ccccc1Nc1c(Cl)cccc1Cl [Diclofenac, reference compound]
% Inhibition of LTB4 (LTB4 Synthesis; 10 mg/kg p.o.): 0%

SMILES: O=C1CCN(c2ccccc2)N1 [Phenidone, reference compound]
ED50 (LTB4 Synthesis): 10 mg/kg

SMILES: Cc1oc(-c2ccccc2)nc1CCOc1cccc(C(C)N(O)C(N)=O)c1 (centres unmarked) [Example 5, 1-Hydroxy-1-[1-[3-[2-(5-methyl-2-phenyl-oxazol-4-yl)-ethoxy]-phenyl]ethyl]-urea]
inhibition at 1 µM (5-Lipoxygenase): 34%

SMILES: CC(C(=O)O)c1cccc(C(=O)c2ccccc2)c1 (centres unmarked) [Ketoprofen, reference compound]
% Inhibition of LTB4 (LTB4 Synthesis; 10 mg/kg p.o.): 35%

SMILES: COc1ccc(-c2nc(CCOc3ccc(CN(O)C(N)=O)cc3)c(C)o2)cc1 [Example 3, 1-Hydroxy-1-[4-[2-[2-(4-methoxy-phenyl)-5-methyl-oxazol-4-yl]-ethoxy]benzyl]-urea]
inhibition at 1 µM (5-Lipoxygenase): 57%
% Inhibition of LTB4 (Lipoxygenase; dose 25 (mg/kg)): 32%

SMILES: Cc1oc(-c2ccc(F)cc2)nc1CCOc1ccc(CN(O)C(N)=O)cc1 [Example 8, 1-[4-[2-[2-(4-Fluoro-phenyl)-5-methyl-oxazol-4-yl)-ethoxy]-benzyl]-1-hydroxy-urea]
inhibition at 1 µM (5-Lipoxygenase): 70%
% Inhibition of LTB4 (Lipoxygenase; dose 10 (mg/kg)): 66%

SMILES: Cc1oc(-c2cccc(F)c2)nc1CCOc1ccc(CN(O)C(N)=O)cc1 [Example 7]
% Inhibition LTB4 Synthesis (LTB4 Synthesis): 38%
inhibition at 1 µM (5-Lipoxygenase): 63%
% Inhibition of LTB4 (Lipoxygenase; dose 10 (mg/kg)): 79%

SMILES: Cc1oc(-c2ccccc2F)nc1CCOc1ccc(CN(O)C(N)=O)cc1 [Example 6, 1-[4-[2-[2-(2-Fluoro-phenyl)-5-methyl-oxazol-4-yl]-ethoxy]-benzyl]-1-hydroxy-urea]
% Inhibition LTB4 Synthesis (LTB4 Synthesis): 48%
inhibition at 1 µM (5-Lipoxygenase): 54%
% Inhibition of LTB4 (Lipoxygenase; dose 10 (mg/kg)): 71%

SMILES: Cc1oc(-c2ccccc2)nc1CCOc1cccc(CN(O)C(N)=O)c1 [Example 2, 1-Hydroxy-1-[3-[2-(5-methyl-2-phenyl-oxazol-4-yl)-ethoxy]-benzyl]-urea]
% Inhibition LTB4 Synthesis (LTB4 Synthesis): 53%
inhibition at 1 µM (5-Lipoxygenase): 51%
% Inhibition of LTB4 (Lipoxygenase; dose 25 (mg/kg)): 21%

SMILES: COc1ccc2cc([C@H](C)C(=O)O)ccc2c1 [Naproxen, reference compound]
% Inhibition of LTB4 (LTB4 Synthesis; 4 mg/kg p.o.): 0%

Now from value to molecule, other results behind:

inhibition at 1 µM (5-Lipoxygenase): 50%
SMILES: Cc1oc(-c2ccc(SC(F)(F)F)cc2)nc1CCOc1ccc(CN(O)C(N)=O)cc1 [Example 16, 1-Hydroxy-1-[4-[2-[5-methyl-2-(4-trifluoromethylsulfanyl-phenyl)-oxazol-4yl]-ethoxy]-benzyl]-urea]

inhibition at 1 µM (5-Lipoxygenase): 30%
SMILES: NC(=O)N(O)Cc1cccc(OCCc2csc(-c3ccc(C(F)(F)F)cc3)n2)c1 [Example 20, 1-Hydroxy-1-[3-[2-[2-(4-trifluoromethyl-phenyl)-thiazol-4-yl]-ethoxy]-benzyl]-urea]

inhibition at 1 µM (5-Lipoxygenase): 38%
SMILES: Cc1oc(-c2ccc(C(F)(F)F)cc2)nc1CCOc1c(Cl)cc(CN(O)C(N)=O)cc1Cl [Example 15, 1-[3,5-Dichloro-4-[2-[5-methyl-2-(4-trifluoromethyl-phenyl)-oxazol-4-yl]ethoxy]-benzyl]-1-hydroxy-urea]

inhibition at 10 µM (5-Lipoxygenase): 94%
SMILES: NC(=S)N(O)Cc1ccc(OCCc2csc(-c3ccccc3)n2)cc1 [Example 18]

inhibition at 10 µM (5-Lipoxygenase): 42%
SMILES: Cc1cc(OCCc2nc(-c3ccccc3)oc2C)cc(C)c1CN(O)C(N)=O [Example 9, 1-[2,6-Dimethyl-4-[2-(5-methyl-2-phenyl-oxazol-4-yl)-ethoxy]-benzyl]-1-hydroxy-urea]

inhibition at 10 µM (5-Lipoxygenase): 77%
SMILES: COC(=O)N(O)Cc1ccc(OCCN(C)c2nc3ccccc3o2)cc1 [Example 24]

inhibition at 10 µM (5-Lipoxygenase): 93%
SMILES: NC(=O)N(O)Cc1ccc(OCCc2csc(-c3ccccc3)n2)cc1 [Example 17, 1-Hydroxy-1-[4-[2-(2-phenyl-thiazol-4-yl)-ethoxy]-benzyl]-urea]

inhibition at 1 µM (5-Lipoxygenase): 36%
SMILES: Cc1oc(-c2ccc(C(F)(F)F)cc2)nc1CCOc1ccc(CN(O)C(N)=O)cc1F [Example 14]

inhibition at 1 µM (5-Lipoxygenase): 71%
SMILES: Cc1oc(-c2ccccc2)nc1CCOc1ccc(CN(O)C(N)=O)cc1F [Example 12, 1-[3-Fluoro-4-[2-(5-methyl-2-phenyl-oxazol-4-yl)-ethoxy]-benzyl]-1-hydroxy-urea]
% Inhibition LTB4 Synthesis (LTB4 Synthesis): 58%
% Inhibition of LTB4 (Lipoxygenase; dose 10 (mg/kg)): 52%

inhibition at 1 µM (5-Lipoxygenase): 40%
SMILES: Cc1ccc(-c2nc(CCOc3ccc(CN(O)C(N)=O)cc3)c(C)o2)cc1 [Example 11, 1-Hydroxy-1-[4-[2-(5-methyl-2-(p-tolyl)-oxazol-4-yl]-ethoxy]-benzyl]-urea]

inhibition at 1 µM (5-Lipoxygenase): 39%
SMILES: CC(=O)N(O)Cc1ccc(OCCN(C)c2nc3ccccc3o2)cc1 [Example 23, N-[4-[2-(Benzoxazol-2-yl-methyl-amino)-ethoxy]-benzyl]-N-hydroxy-acetamide]
% Inhibition of LTB4 (Lipoxygenase; dose 25 (mg/kg)): 78%

inhibition at 10 µM (5-Lipoxygenase): 60%
SMILES: CN(CCOc1ccc(CN(O)C(N)=O)cc1)c1nc2ccccc2o1 [Example 22, 1-[4-[2-(-Benzoxazol-2-yl-methyl-amino)-ethoxy]-benzyl]-1-hydroxy-urea]
